The target of the assay is human BACE1 (Homo sapiens, UniProt P56817). Kind of assay: Fluorescent kinetic assay, evaluation of BACE1 binding affinity of test compounds. Type of assay: biochemical. The following applies: 10 nM human BACE1, 25 μM substrate WABC-6, pH 4.5, room temperature; read-out: BACE1 IC50. In short, it runs like this:
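Kinetic fluorescence assay: enzyme added last to inhibitor and substrate mix, reading started immediately; substrate at 100 μM working dilution (25 μL in 100 μL total). Buffer 66.7 mM Na-acetate pH 4.5 with 0.0667% CHAPS for inhibitor and enzyme dilutions; enzyme stock quantified at 280 nm.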

Sequence of human BACE1 (P56817 46-501): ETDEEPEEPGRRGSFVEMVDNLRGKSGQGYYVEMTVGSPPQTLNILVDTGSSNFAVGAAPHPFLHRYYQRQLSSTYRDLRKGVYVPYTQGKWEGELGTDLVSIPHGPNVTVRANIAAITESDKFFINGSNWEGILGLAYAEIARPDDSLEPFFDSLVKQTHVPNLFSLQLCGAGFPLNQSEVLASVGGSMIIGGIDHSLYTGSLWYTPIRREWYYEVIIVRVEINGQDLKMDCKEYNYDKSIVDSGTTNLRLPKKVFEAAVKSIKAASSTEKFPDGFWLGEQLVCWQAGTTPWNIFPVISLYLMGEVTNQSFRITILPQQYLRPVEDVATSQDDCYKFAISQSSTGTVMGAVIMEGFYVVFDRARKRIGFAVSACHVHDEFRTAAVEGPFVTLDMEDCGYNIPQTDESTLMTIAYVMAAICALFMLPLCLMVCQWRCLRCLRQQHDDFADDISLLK

`CN1C(=O)C(c2ccccc2)(c2ccc(OC(F)F)c(CCF)c2)N=C1N` (stereo not drawn) [Example 74, 2-amino-5-[4-(difluoromethoxy)-3-(2-fluoroethyl)phenyl]-3-methyl-5-phenyl-3,5-dihydro-4H-imidazol-4-one]: the IC50 was in the range of 110 to 1000 nM.

For `Cc1cccc(C2(c3ccc(OC(F)F)c(C)c3)N=C(N)N(C)C2=O)c1` (stereo not drawn) [Example 77, 2-amino-5-[4-(difluoromethoxy)-3-methylphenyl]-3-methyl-5-(3-methylphenyl)-3,5-dihydro-4H-imidazol-4-one], the concentration for half-maximal inhibition (IC50) is 110 to 1000 nM.

`CCCC#Cc1cccc([C@@]2(c3ccc(OC(F)F)c(C)c3)N=C(N)N(C)C2=O)c1` [Example 78, (5S)-2-amino-5-[4-(difluoromethoxy)-3-methylphenyl]-3-methyl-5-(3-pent-1-yn-1-ylphenyl)-3,5-dihydro-4H-imidazol-4-one]: the IC50 was under 100 nM.

For `CCC#Cc1cccc(C2(c3ccc(OC(F)F)c(C)c3)N=C(N)N(C)C2=O)c1` (stereo not drawn) [Example 81, 2-amino-4-(3-(but-1-ynyl)phenyl)-4-(4-(difluoromethoxy)-3-methylphenyl)-1-methyl-1H-imidazol-5(4H)-one], the half-inhibitory concentration (IC50) is under 100 nM.

In the case of `CCC#Cc1cc(C2(c3ccc(OC(F)F)c(C)c3)N=C(N)N(C)C2=O)ccc1F` (stereo not drawn) [Example 82, 2-amino-5-(3-but-1-yn-1-yl-4-fluorophenyl)-5-[4-(difluoromethoxy)-3-methylphenyl]-3-methyl-3,5-dihydro-4H-imidazol-4-one], the IC50 is under 100 nM.

Regarding `CN1C(=O)C(c2ccc(F)c(OCCCF)c2)(c2ccc(OC(F)F)c(C3CC3)c2)N=C1N` (stereo not drawn) [Example 85, 2-amino-5-[3-cyclopropyl-4-(difluoromethoxy)phenyl]-5-[4-fluoro-3-(3-fluoropropoxy)phenyl]-3-methyl-3,5-dihydro-4H-imidazol-4-one], the 50% inhibitory concentration (IC50) is under 100 nM.

For the molecule `CCCC#Cc1cc(C2(c3ccc(OC(F)F)c(CCF)c3)N=C(N)N(C)C2=O)ccc1F` (stereo not drawn) [Example 88, 2-amino-5-[4-(difluoromethoxy)-3-(2-fluoroethyl)phenyl]-5-(4-fluoro-3-pent-1-yn-1-ylphenyl)-3-methyl-3,5-dihydro-4H-imidazol-4-one], the concentration for half-maximal inhibition (IC50) is under 100 nM.

For `CCC#Cc1cc(C2(c3ccc(OC(F)F)c(CCF)c3)N=C(N)N(C)C2=O)ccc1F` (stereo not drawn) [Example 89, 2-amino-5-(3-but-1-yn-1-yl-4-fluorophenyl)-5-[4-(difluoromethoxy)-3-(2-fluoroethyl)phenyl]-3-methyl-3,5-dihydro-4H-imidazol-4-one], the IC50 is under 100 nM.

For `CC(C)CC#Cc1cc(C2(c3ccc(OC(F)F)c(CCF)c3)N=C(N)N(C)C2=O)ccc1F` (stereo not drawn) [Example 90, 2-amino-5-[4-(difluoromethoxy)-3-(2-fluoroethyl)phenyl]-5-[4-fluoro-3-(4-methylpent-1-yn-1-yl)phenyl]-3-methyl-3,5-dihydro-4H-imidazol-4-one], the IC50 is under 100 nM.

As for `CN1C(=O)C(c2ccc(F)c(C#CCCF)c2)(c2ccc(OC(F)F)c(CCF)c2)N=C1N` (stereo not drawn) [Example 91, 2-amino-5-[4-(difluoromethoxy)-3-(2-fluoroethyl)phenyl]-5-[4-fluoro-3-(4-fluorobut-1-yn-1-yl)phenyl]-3-methyl-3,5-dihydro-4H-imidazol-4-one], the 50% inhibitory concentration (IC50) is under 100 nM.

For `CN1C(=O)C(c2ccc(F)c(C#CC3CC3)c2)(c2ccc(OC(F)F)c(CCF)c2)N=C1N` (stereo not drawn) [Example 92, 2-amino-5-[3-(cyclopropylethynyl)-4-fluorophenyl]-5-[4-(difluoromethoxy)-3-(2-fluoroethyl)phenyl]-3-methyl-3,5-dihydro-4H-imidazol-4-one], the IC50 is under 100 nM.

Regarding `CN1C(=O)C(c2ccc(F)c(O)c2)(c2ccc(OC(F)F)c(Cl)c2)N=C1N` (stereo not drawn) [Example 95, 2-Amino-5-[3-chloro-4-(difluoromethoxy)phenyl]-5-(4-fluoro-3-hydroxyphenyl)-3-methyl-3,5-dihydro-4H-imidazol-4-one], the IC50 was in the range of 110 to 1000 nM.

As for `CCOc1cc(C2(c3ccc(OC(F)F)c(Cl)c3)N=C(N)N(C)C2=O)ccc1F` (stereo not drawn) [Example 96, 2-Amino-5-[3-chloro-4-(difluoromethoxy)phenyl]-5-(3-ethoxy-4-fluorophenyl)-3-methyl-3,5-dihydro-4H-imidazol-4-one], the IC50 is under 100 nM.

Take `CCCOc1cc(C2(c3ccc(OC(F)F)c(Cl)c3)N=C(N)N(C)C2=O)ccc1F` (stereo not drawn) [Example 97, 2-Amino-5-[3-chloro-4-(difluoromethoxy)phenyl]-5-(4-fluoro-3-propoxyphenyl)-3-methyl-3,5-dihydro-4H-imidazol-4-one]: the IC50 is under 100 nM.

Consider `CN1C(=O)C(c2ccc(OC(F)F)c(Cl)c2)(c2ccc(F)c(OCCCF)c2)N=C1N` (stereo not drawn) [Example 98, 2-Amino-5-[3-chloro-4-(difluoromethoxy)phenyl]-5-[4-fluoro-3-(3-fluoropropoxy)phenyl]-3-methyl-3,5-dihydro-4H-imidazol-4-one], for which the concentration for half-maximal inhibition (IC50) is under 100 nM.

`CN1C(=O)C(c2ccc(OC(F)F)c(Cl)c2)(c2ccc(F)c(OCCF)c2)N=C1N` (stereo not drawn) [Example 99, 2-Amino-5-[3-chloro-4-(difluoromethoxy)phenyl]-5-[4-fluoro-3-(2-fluoroethoxy)phenyl]-3-methyl-3,5-dihydro-4H-imidazol-4-one]: the IC50 was under 100 nM.

For `CN1C(=O)C(c2ccc(OC(F)F)c(Cl)c2)(c2ccc(F)c(OCC(F)F)c2)N=C1N` (stereo not drawn) [Example 100, 2-Amino-5-[3-chloro-4-(difluoromethoxy)phenyl]-5-[3-(2,2-difluoroethoxy)-4-fluorophenyl]-3-methyl-3,5-dihydro-4H-imidazol-4-one], the concentration for half-maximal inhibition (IC50) is under 100 nM.

As for `CCOc1cc(C2(c3ccc(OC(F)F)c(C)c3)N=C(N)N(C)C2=O)ccc1F` (stereo not drawn) [Example 101, 2-Amino-5-[4-(difluoromethoxy)-3-methylphenyl]-5-(3-ethoxy-4-fluorophenyl)-3-methyl-3,5-dihydro-4H-imidazol-4-one], the IC50 is under 100 nM.

Take `Cc1cc(C2(c3ccc(F)c(OCC4CC4)c3)N=C(N)N(C)C2=O)ccc1OC(F)F` (stereo not drawn) [Example 105, 2-Amino-5-[3-(cyclopropylmethoxy)-4-fluorophenyl]-5-[4-(difluoromethoxy)-3-methylphenyl]-3-methyl-3,5-dihydro-4H-imidazol-4-one]: the concentration for half-maximal inhibition (IC50) is under 100 nM.

For the molecule `Cc1cc([C@]2(c3ccc(F)c(OCC4CC4)c3)N=C(N)N(C)C2=O)ccc1OC(F)F` [Example 106, (5R)-2-Amino-5-[3-(cyclopropylmethoxy)-4-fluorophenyl]-5-[4-(difluoromethoxy)-3-methylphenyl]-3-methyl-3,5-dihydro-4H-imidazol-4-one], the IC50 was under 100 nM.

For `Cc1cc([C@@]2(c3ccc(F)c(OCC4CC4)c3)N=C(N)N(C)C2=O)ccc1OC(F)F` [Example 107, (5S)-2-Amino-5-[3-(cyclopropylmethoxy)-4-fluorophenyl]-5-[4-(difluoromethoxy)-3-methylphenyl]-3-methyl-3,5-dihydro-4H-imidazol-4-one], the IC50 is over 1000 nM.

On to `Cc1cc(C2(c3ccc(F)c(OCCCF)c3)N=C(N)N(C)C2=O)ccc1OC(F)F` (stereo not drawn) [Example 108, 2-Amino-5-[4-(difluoromethoxy)-3-methylphenyl]-5-[4-fluoro-3-(3-fluoropropoxy)phenyl]-3-methyl-3,5-dihydro-4H-imidazol-4-one], for which the IC50 is under 100 nM.

Take `Cc1cc(C2(c3ccc(F)c(OCCF)c3)N=C(N)N(C)C2=O)ccc1OC(F)F` (stereo not drawn) [Example 109, 2-Amino-5-[4-(difluoromethoxy)-3-methylphenyl]-5-[4-fluoro-3-(2-fluoroethoxy)phenyl]-3-methyl-3,5-dihydro-4H-imidazol-4-one]: the IC50 is under 100 nM.

`Cc1cc([C@@]2(c3ccc(F)c(OCCCF)c3)N=C(N)N(C)C2=O)ccc1OC(F)F` [Example 110, (5S)-2-Amino-5-[4-(difluoromethoxy)-3-methylphenyl]-5-[4-fluoro-3-(3-fluoropropoxy)phenyl]-3-methyl-3,5-dihydro-4H-imidazol-4-one]: the IC50 is 110 to 1000 nM.

Turning to `Cc1cc([C@]2(c3ccc(F)c(OCCCF)c3)N=C(N)N(C)C2=O)ccc1OC(F)F` [Example 111, (5R)-2-Amino-5-[4-(difluoromethoxy)-3-methylphenyl]-5-[4-fluoro-3-(3-fluoropropoxy)phenyl]-3-methyl-3,5-dihydro-4H-imidazol-4-one], the IC50 was under 100 nM.

In the case of `Cc1cc([C@@]2(c3ccc(F)c(OCCF)c3)N=C(N)N(C)C2=O)ccc1OC(F)F` [Example 112, (5S)-2-Amino-5-[4-(difluoromethoxy)-3-methylphenyl]-5-[4-fluoro-3-(2-fluoroethoxy)phenyl]-3-methyl-3,5-dihydro-4H-imidazol-4-one], the half-maximal inhibitory concentration (IC50) is over 1000 nM.

In the case of `Cc1cc([C@]2(c3ccc(F)c(OCCF)c3)N=C(N)N(C)C2=O)ccc1OC(F)F` [Example 113, (5R)-2-Amino-5-[4-(difluoromethoxy)-3-methylphenyl]-5-[4-fluoro-3-(2-fluoroethoxy)phenyl]-3-methyl-3,5-dihydro-4H-imidazol-4-one], the IC50 is under 100 nM.

For `CCCOc1cc(C2(c3ccc(OC(F)F)c(C)c3)N=C(N)N(C)C2=O)ccc1F` (stereo not drawn) [Example 114, 2-Amino-5-[4-(difluoromethoxy)-3-methylphenyl]-5-(4-fluoro-3-propoxyphenyl)-3-methyl-3,5-dihydro-4H-imidazol-4-one], the IC50 was under 100 nM.

Turning to `CCCOc1cc([C@]2(c3ccc(OC(F)F)c(C)c3)N=C(N)N(C)C2=O)ccc1F` [Example 115, (5S)-2-Amino-5-[4-(difluoromethoxy)-3-methylphenyl]-5-(4-fluoro-3-propoxyphenyl)-3-methyl-3,5-dihydro-4H-imidazol-4-one], the IC50 lay in the range of 110 to 1000 nM.

Regarding `CCc1cc(C2(c3ccc(F)c(OCC(F)F)c3)N=C(N)N(C)C2=O)ccc1OC(F)F` (stereo not drawn) [Example 117, 2-Amino-5-[3-(2,2-difluoroethoxy)-4-fluorophenyl]-5-[4-(difluoromethoxy)-3-ethylphenyl]-3-methyl-3,5-dihydro-4H-imidazol-4-one], the IC50 is under 100 nM.

Source of the values: US20090042964A1, “AMINO-5-[SUBSTITUTED-4-(DIFLUOROMETHOXY)PHENYL]-5-PHENYLIMIDAZOLONE COMPOUNDS AS BETA-SECRETASE INHIBITORS” (Wyeth, priority 2007, published 2009).
